US20210284638A1 (Saint Louis University, priority 2018, published 2021)
Where a name gives a salt, the structure may show the parent alone.

Assays:
[1] = target: T1, Recombinant human integrin αVβ6 (Homo sapiens, UniProt P06756+P18564); experiment: Solid Phase Receptor Assay (SPRA) for αVβ6 function; type: binding; details: plate-bound human LAP
T1 construct: purchased R&D Systems 3817-AV
Method: E. Solid Phase Receptor Assay (SPRA) for αVβ6 Function
Wells were washed 3 times with 150 μL TBS+, and then 150 μL of blocking buffer (TBS+ with 1% bovine serum albumin, Sigma A7906) was added. The plate was incubated for 1 hr at 37° C., and then washed 3× with TBS+ buffer. […] Compounds were diluted to 20 μM and then 1 μL was added to each well of the plate according to a standard template with each sample repeated in triplicate. After incubation for two hours at room temperature, the plate was washed 3× with 150 μL of TBS+ buffer. To each well, 50 μL of biotinylated anti-αV antibody (R&D Systems, BAF1219) at 0.5 μg/mL in TBS+/0.1% BSA were added and the plate was covered and incubated for 1 hr at room temperature. After washing the plate 3× with 150 μL of TBS+ buffer, 50 μL of streptavidin-conjugated horseradish peroxidase (R&D Systems, DY998) diluted in TBS+ blocking buffer were added to the wells and the plate incubated for 20 min at room temperature. The plate was washed 3× with TBS+ buffer followed by 50 μL of TMB substrate (Sigma T4444) added to each well in the dark and the plate incubated for 10 min at room temperature. 25 μL of 1.0 M phosphoric acid was added as a stop solution and the plates were read at 450 nm using a Spectramax plate reader.

[2] = target: T2, Recombinant human integrin αvβ1 (Homo sapiens, UniProt P05556+P06756); experiment: Solid Phase Receptor Assay (SPRA) for αVβ1 function; type: binding; details: plate-bound human fibronectin
T2 construct: purchased R&D Systems 6579-AV
T2 sequence (P06756 31-992 limits assumed): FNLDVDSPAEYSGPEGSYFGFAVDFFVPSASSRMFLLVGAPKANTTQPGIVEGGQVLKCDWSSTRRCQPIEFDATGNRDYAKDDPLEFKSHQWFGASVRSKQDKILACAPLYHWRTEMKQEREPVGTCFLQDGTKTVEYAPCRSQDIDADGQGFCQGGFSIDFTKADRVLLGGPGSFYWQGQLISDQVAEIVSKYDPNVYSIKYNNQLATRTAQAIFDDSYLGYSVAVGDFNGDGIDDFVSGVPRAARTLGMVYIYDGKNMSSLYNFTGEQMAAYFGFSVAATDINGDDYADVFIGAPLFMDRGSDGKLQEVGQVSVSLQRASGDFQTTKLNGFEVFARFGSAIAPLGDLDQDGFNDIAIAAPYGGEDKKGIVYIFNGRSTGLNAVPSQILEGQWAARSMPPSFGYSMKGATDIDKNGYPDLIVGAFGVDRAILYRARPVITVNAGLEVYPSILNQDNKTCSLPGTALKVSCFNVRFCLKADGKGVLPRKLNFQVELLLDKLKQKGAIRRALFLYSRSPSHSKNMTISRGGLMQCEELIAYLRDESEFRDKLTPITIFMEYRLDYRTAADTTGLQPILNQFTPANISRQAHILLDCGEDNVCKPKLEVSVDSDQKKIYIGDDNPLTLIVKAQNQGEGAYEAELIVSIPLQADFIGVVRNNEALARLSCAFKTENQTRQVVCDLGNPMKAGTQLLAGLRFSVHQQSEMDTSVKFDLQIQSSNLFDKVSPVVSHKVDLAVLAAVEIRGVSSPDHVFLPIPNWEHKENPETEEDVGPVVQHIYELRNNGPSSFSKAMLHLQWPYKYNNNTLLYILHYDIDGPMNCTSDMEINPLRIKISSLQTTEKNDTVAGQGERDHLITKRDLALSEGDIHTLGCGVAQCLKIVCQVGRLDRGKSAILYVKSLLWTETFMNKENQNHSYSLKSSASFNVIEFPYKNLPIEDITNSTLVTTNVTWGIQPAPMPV
T2 sequence (P05556 21-728 limits assumed): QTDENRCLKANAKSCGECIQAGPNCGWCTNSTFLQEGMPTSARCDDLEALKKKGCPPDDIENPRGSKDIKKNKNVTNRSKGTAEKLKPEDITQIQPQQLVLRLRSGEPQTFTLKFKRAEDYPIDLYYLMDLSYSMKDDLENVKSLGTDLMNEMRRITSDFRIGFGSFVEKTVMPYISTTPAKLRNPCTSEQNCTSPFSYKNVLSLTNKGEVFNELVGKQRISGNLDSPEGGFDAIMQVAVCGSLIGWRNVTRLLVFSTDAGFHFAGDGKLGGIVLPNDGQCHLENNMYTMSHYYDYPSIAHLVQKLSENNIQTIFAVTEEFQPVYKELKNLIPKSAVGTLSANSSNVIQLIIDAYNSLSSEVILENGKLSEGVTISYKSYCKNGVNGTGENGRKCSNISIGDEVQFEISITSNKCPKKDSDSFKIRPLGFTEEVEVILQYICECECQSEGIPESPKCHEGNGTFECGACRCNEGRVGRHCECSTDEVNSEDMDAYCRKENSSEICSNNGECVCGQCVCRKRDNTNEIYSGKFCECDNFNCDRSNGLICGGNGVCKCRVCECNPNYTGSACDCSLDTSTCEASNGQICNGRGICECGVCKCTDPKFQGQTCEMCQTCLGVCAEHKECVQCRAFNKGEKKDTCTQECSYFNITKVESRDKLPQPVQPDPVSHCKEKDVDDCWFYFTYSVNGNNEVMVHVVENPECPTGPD
Method: B. Solid Phase Receptor Assay (SPRA) for αVβ1 Function
Wells were washed 3 times with 150 μL TBS+ and then 150 μL of blocking buffer (TBS+ with 1% bovine serum albumin, Sigma A7906) was added. The plate was incubated for 1 hr at 37° C. and then washed 3× with TBS+ buffer. […] Compounds were diluted to 20 μM and 1 μL was added to each well of the plate according to a standard template with each sample repeated in triplicate. After incubation for two hours at room temperature, the plate was washed 3× with 150 μL of TBS+ buffer. To each well, 50 μL of biotinylated anti-αV antibody (R&D Systems, BAF1219) at 1 μg/mL in TBS+/0.1% BSA were added and the plate covered and incubated for 1 hr at room temperature. After washing the plate 3× with 150 μL of TBS+ buffer, 50 μL of streptavidin-conjugated horseradish peroxidase (R&D Systems, DY998) diluted in TBS+ blocking buffer were added to the wells and the plate incubated for 20 min at room temperature. The plate was washed 3× with TBS+ buffer followed by 50 μL of TMB substrate (Sigma, T4444) added to each well in the dark and the plate incubated for 25 min at room temperature. 25 μL of 1.0 M phosphoric acid was added as a stop solution and the plates were read at 450 nm using a Spectramax plate reader.

T1 sequence (P06756 31-992 limits assumed): as the sequence (P06756 31-992 limits assumed) above
T1 sequence (P18564 22-707 limits assumed): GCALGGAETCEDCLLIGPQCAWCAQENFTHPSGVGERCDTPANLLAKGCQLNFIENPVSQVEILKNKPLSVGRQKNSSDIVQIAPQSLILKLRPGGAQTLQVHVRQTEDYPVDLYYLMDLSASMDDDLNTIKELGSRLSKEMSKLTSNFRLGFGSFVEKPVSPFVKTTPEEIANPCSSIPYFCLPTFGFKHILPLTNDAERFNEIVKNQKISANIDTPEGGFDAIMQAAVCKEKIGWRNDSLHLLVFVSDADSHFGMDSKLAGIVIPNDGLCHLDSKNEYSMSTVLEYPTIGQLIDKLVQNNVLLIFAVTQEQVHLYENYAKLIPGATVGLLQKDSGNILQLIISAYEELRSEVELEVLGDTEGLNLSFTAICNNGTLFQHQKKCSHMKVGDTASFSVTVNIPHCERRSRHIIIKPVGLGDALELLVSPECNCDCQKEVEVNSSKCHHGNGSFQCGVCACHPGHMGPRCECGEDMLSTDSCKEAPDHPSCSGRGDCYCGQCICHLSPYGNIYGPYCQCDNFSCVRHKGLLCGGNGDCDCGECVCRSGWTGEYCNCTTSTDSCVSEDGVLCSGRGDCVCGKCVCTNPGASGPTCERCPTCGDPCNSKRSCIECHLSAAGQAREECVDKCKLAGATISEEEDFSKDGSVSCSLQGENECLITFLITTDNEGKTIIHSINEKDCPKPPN

Structure (SMILES)	IC50 [1]	IC50 [2]
Cn1nc(CC(CC(=O)O)c2cc(C(C)(C)C)cc(C(C)(C)CO)c2)cc1OCCc1ccc2c(n1)NCCC2 (centres unmarked) [Example 7, 3-[3-tert-butyl-5-(2-hydroxy-1,1-dimethyl-ethyl)phenyl]-4-[1-methyl-5-[2-(5,6,7,8-tetrahydro-1,8-naphthyridin-2-yl)ethoxy]pyrazol-3-yl]butanoic acid]	300 nM	3 nM
Cn1nc(CC(CC(=O)O)c2cc(C(C)(C)C)ccc2F)cc1OCCc1ccc2c(n1)NCCC2 (centres unmarked) [Example 19, 3-(5-(tert-butyl)-2-fluorophenyl)-4-(1-methyl-5-(2-(5,6,7,8-tetrahydro-1,8-naphthyridin-2-yl)ethoxy)-1H-pyrazol-3-yl)butanoic acid]	180 nM	7 nM
CC(C)(C)c1cc(C(CC(=O)O)Cc2cc(OCCc3ccc4c(n3)NCCC4)n(CC(F)(F)F)n2)cc(C(C)(C)C)c1 (centres unmarked) [Example 40, 3-(3,5-di-tert-butylphenyl)-4-(5-(2-(5,6,7,8-tetrahydro-1,8-naphthyridin-2-yl)ethoxy)-1-(2,2,2-trifluoroethyl)-1H-pyrazol-3-yl)butanoic acid trifluoroacetate]	790 nM	3 nM
Cn1nc(CC(CC(=O)O)c2cc(C(C)(C)C)cc(C3(C(F)F)CC3)c2)cc1OCCc1ccc2c(n1)NCCC2 (centres unmarked) [Example 6, 3-(3-(tert-butyl)-5-(1-(difluoromethyl)cyclopropyl)phenyl)-4-(1-methyl-5-(2-(5,6,7,8-tetrahydro-1,8-naphthyridin-2-yl)ethoxy)-1H-pyrazol-3-yl)butanoic acid]	140 nM	5 nM
